Patent US10238670B2, “9-aminomethyl minocycline compounds and methods of use thereof in urinary tract infection (UTI) treatment” (Paratek Pharmaceuticals, Inc., priority 2016, dated 2019)
Values after ≈ are worked out from the molar mass of the structure shown. Like-named read-outs stand apart in the source and are kept apart here.

Key:
Experiment in all cases: In vitro MIC, 2010 surveillance isolates
MRSA = type: cell-based
K. oxytoca = type: cell-based
E. cloacae CeftazS = type: cell-based
E. cloacae CeftazR = type: cell-based
E. faecalis VNS = type: cell-based; details: for % R (resistance): CLSI breakpoints
K. pneumoniae ESBL+ = type: cell-based, Klebsiella pneumoniae
Enterobacter spp = type: cell-based
E. faecium VNS = type: cell-based; details: for % R (resistance): CLSI breakpoints
E. coli ESBL− = type: cell-based, Escherichia coli
MS CoNS = type: cell-based, Coagulase-Negative Staphylococcus
K. pneumoniae ESBL− = type: cell-based, Klebsiella pneumoniae
E. coli ESBL+ = type: cell-based, Escherichia coli
E. faecalis VS = type: cell-based; details: for % R (resistance): CLSI breakpoints
MR CoNS = type: cell-based, Coagulase-Negative Staphylococcus
A. baumanii = type: cell-based
Acinetobacter spp = type: cell-based
E. faecium VS = type: cell-based; details: for % R (resistance): CLSI breakpoints
MSSA = type: cell-based

MIC90 (MRSA; Asia/Pac, N=428): > 4 µg/mL
MIC90 (MRSA; Europe, N=750): > 4 µg/mL
MIC90 (MRSA; L. Amer, N=506): > 4 µg/mL
MIC90 (MRSA; N America, N=2508): > 4 µg/mL
MIC90 (K. oxytoca; Asia/Pac, N=17): ≤ 0.5 µg/mL
MIC90 (K. oxytoca; Europe, N=158): ≤ 0.5 µg/mL
MIC90 (K. oxytoca; L. Amer, N=25): > 4 µg/mL
MIC90 (K. oxytoca; N America, N=177): ≤ 0.5 µg/mL
MIC90 (E. cloacae CeftazS; Asia/Pac, N=100): ≤ 0.5 µg/mL
MIC90 (E. cloacae CeftazS; Europe, N=183): ≤ 0.5 µg/mL
MIC90 (E. cloacae CeftazS; L. Amer, N=57): > 4 µg/mL
MIC90 (E. cloacae CeftazS; N America, N=210): ≤ 0.5 µg/mL
MIC90 (E. cloacae CeftazR; Asia/Pac, N=63): > 4 µg/mL
MIC90 (E. cloacae CeftazR; Europe, N=72): > 4 µg/mL
MIC90 (E. cloacae CeftazR; L. Amer, N=42): > 4 µg/mL
MIC90 (E. cloacae CeftazR; N America, N=77): > 4 µg/mL
range of MICs (N <10, shown instead of MIC90) (E. faecalis VNS; Asia/Pac, N=1): >4
range of MICs (N <10, shown instead of MIC90) (E. faecalis VNS; L. Amer, N=7): > 4
MIC90 (E. faecalis VNS; N America, N=38): > 4 µg/mL
MIC90 (K. pneumoniae ESBL+; Asia/Pac, N=124): > 4 µg/mL
MIC90 (K. pneumoniae ESBL+; Europe, N=151): > 4 µg/mL
MIC90 (K. pneumoniae ESBL+; L. Amer, N=209): > 4 µg/mL
MIC90 (K. pneumoniae ESBL+; N America, N=108): > 4 µg/mL
MIC90 (Enterobacter spp; Asia/Pac, N=52): ≤ 0.5 µg/mL
MIC90 (Enterobacter spp; Europe, N=82): 1 µg/mL (≈ 2.77 µM)
MIC90 (Enterobacter spp; L. Amer, N=42): 4 µg/mL (≈ 11.1 µM)
MIC90 (Enterobacter spp; N America, N=101): ≤ 0.5 µg/mL
MIC90 (E. faecium VNS; Asia/Pac, N=24): > 4 µg/mL
MIC90 (E. faecium VNS; Europe, N=71): > 4 µg/mL
MIC90 (E. faecium VNS; L. Amer, N=41): > 4 µg/mL
MIC90 (E. faecium VNS; N America, N=478): > 4 µg/mL
MIC90 (E. coli ESBL−; Asia/Pac, N=282): > 4 µg/mL
MIC90 (E. coli ESBL−; Europe, N=1533): > 4 µg/mL
MIC90 (E. coli ESBL−; L. Amer, N=389): > 4 µg/mL
MIC90 (E. coli ESBL−; N America, N=1172): > 4 µg/mL
MIC90 (MS CoNS; Asia/Pac, N=18): > 4 µg/mL
MIC90 (MS CoNS; Europe, N=185): 2 µg/mL (≈ 5.53 µM)
MIC90 (MS CoNS; L. Amer, N=67): ≤ 0.5 µg/mL
MIC90 (MS CoNS; N America, N=191): > 4 µg/mL
MIC90 (K. pneumoniae ESBL−; Asia/Pac, N=189): 1 µg/mL (≈ 2.77 µM)
MIC90 (K. pneumoniae ESBL−; Europe, N=361): ≤ 0.5 µg/mL
MIC90 (K. pneumoniae ESBL−; L. Amer, N=160): 1 µg/mL (≈ 2.77 µM)
MIC90 (K. pneumoniae ESBL−; N America, N=671): ≤ 0.5 µg/mL
MIC90 (E. coli ESBL+; Asia/Pac, N=219): > 4 µg/mL
MIC90 (E. coli ESBL+; Escherichia coli, ESBL-producing E. coli, read-out: MIC90): > 4 µg/mL
MIC90 (E. coli ESBL+; Europe, N=274): > 4 µg/mL
MIC90 (E. coli ESBL+; L. Amer, N=168): > 4 µg/mL
MIC90 (E. coli ESBL+; N America, N=134): > 4 µg/mL
MIC90 (E. faecalis VS; Asia/Pac, N=214): > 4 µg/mL
MIC90 (E. faecalis VS; Europe, N=669): > 4 µg/mL
MIC90 (E. faecalis VS; L. Amer, N=290): > 4 µg/mL
MIC90 (E. faecalis VS; N America, N=863): > 4 µg/mL
MIC90 (MR CoNS; Asia/Pac, N=77): > 4 µg/mL
MIC90 (MR CoNS; Europe, N=510): > 4 µg/mL
MIC90 (MR CoNS; L. Amer, N=301): > 4 µg/mL
MIC90 (MR CoNS; N America, N=461): > 4 µg/mL
MIC90 (A. baumanii; Asia/Pac, N=275): > 4 µg/mL
MIC90 (A. baumanii; Europe, N=145): > 4 µg/mL
MIC90 (A. baumanii; L. Amer, N=275): > 4 µg/mL
MIC90 (A. baumanii; N America, N=154): > 4 µg/mL
MIC90 (Acinetobacter spp; Europe, N=43): > 4 µg/mL
MIC90 (Acinetobacter spp; N America, N=42): > 4 µg/mL
MIC90 (E. faecium VS; Asia/Pac, N=106): > 4 µg/mL
MIC90 (E. faecium VS; Europe, N=303): > 4 µg/mL
MIC90 (E. faecium VS; L. Amer, N=51): > 4 µg/mL
MIC90 (E. faecium VS; N America, N=115): > 4 µg/mL
MIC90 (MSSA; Asia/Pac, N=641): ≤ 0.5 µg/mL
MIC90 (MSSA; Europe, N=2109): ≤ 0.5 µg/mL
MIC90 (MSSA; L. Amer, N=590): ≤ 0.5 µg/mL
MIC90 (MSSA; N America, N=2373): 4 µg/mL (≈ 11.1 µM)
SMILES: C[C@H]1COc2c(N3CCN(C)CC3)c(F)cc3c(=O)c(C(=O)O)cn1c23 [Levofloxacin]
% R (resistance) (MRSA; Asia/Pac, Eucast breakpoints): 70.6%
% R (resistance) (MRSA; Europe, Eucast breakpoints): 86.4%
% R (resistance) (MRSA; L. Amer, CLSI breakpoints): 84%
% R (resistance) (MRSA; N America, CLSI breakpoints): 67.3%
% R (resistance) (K. oxytoca; Asia/Pac, Eucast breakpoints): 0%
% R (resistance) (K. oxytoca; Europe, Eucast breakpoints): 3.2%
% R (resistance) (K. oxytoca; L. Amer, CLSI breakpoints): 16%
% R (resistance) (K. oxytoca; N America, CLSI breakpoints): 1.7%
% R (resistance) (E. cloacae CeftazS; Asia/Pac, Eucast breakpoints): 4%
% R (resistance) (E. cloacae CeftazS; Europe, Eucast breakpoints): 2.2%
% R (resistance) (E. cloacae CeftazS; L. Amer, CLSI breakpoints): 12.3%
% R (resistance) (E. cloacae CeftazS; N America, CLSI breakpoints): 2.9%
% R (resistance) (E. cloacae CeftazR; Asia/Pac, Eucast breakpoints): 20.6%
% R (resistance) (E. cloacae CeftazR; Europe, Eucast breakpoints): 22.2%
% R (resistance) (E. cloacae CeftazR; L. Amer, CLSI breakpoints): 31%
% R (resistance) (E. cloacae CeftazR; N America, CLSI breakpoints): 19.5%
% R (resistance) (E. faecalis VNS; L. Amer): 100%
% R (resistance) (E. faecalis VNS; N America): 97.4%
% R (resistance) (K. pneumoniae ESBL+; Asia/Pac, Eucast breakpoints): 61.3%
% R (resistance) (K. pneumoniae ESBL+; Europe, Eucast breakpoints): 66.9%
% R (resistance) (K. pneumoniae ESBL+; L. Amer, CLSI breakpoints): 67.9%
% R (resistance) (K. pneumoniae ESBL+; N America, CLSI breakpoints): 75%
% R (resistance) (Enterobacter spp; Asia/Pac, Eucast breakpoints): 1.9%
% R (resistance) (Enterobacter spp; Europe, Eucast breakpoints): 73%
% R (resistance) (Enterobacter spp; L. Amer, CLSI breakpoints): 9.5%
% R (resistance) (Enterobacter spp; N America, CLSI breakpoints): 1%
% R (resistance) (E. faecium VNS; L. Amer): 100%
% R (resistance) (E. faecium VNS; N America): 99.6%
% R (resistance) (E. coli ESBL−; Asia/Pac, Eucast breakpoints): 17%
% R (resistance) (E. coli ESBL−; Europe, Eucast breakpoints): 19.3%
% R (resistance) (E. coli ESBL−; L. Amer, CLSI breakpoints): 22.9%
% R (resistance) (E. coli ESBL−; N America, CLSI breakpoints): 21.9%
% R (resistance) (MS CoNS; Asia/Pac, Eucast breakpoints): 16.7%
% R (resistance) (MS CoNS; Europe, Eucast breakpoints): 9.7%
% R (resistance) (MS CoNS; L. Amer, CLSI breakpoints): 6%
% R (resistance) (MS CoNS; N America, CLSI breakpoints): 23.6%
% R (resistance) (K. pneumoniae ESBL−; Asia/Pac, Eucast breakpoints): 5.3%
% R (resistance) (K. pneumoniae ESBL−; Europe, Eucast breakpoints): 4.2%
% R (resistance) (K. pneumoniae ESBL−; L. Amer, CLSI breakpoints): 7.5%
% R (resistance) (K. pneumoniae ESBL−; N America, CLSI breakpoints): 1.9%
% R (resistance) (E. coli ESBL+; Asia/Pac, Eucast breakpoints): 78.1%
resistance rates for ESBL-producing clinical isolates (E. coli ESBL+; E. coli): 76.5%
% R (resistance) (E. coli ESBL+; Europe, Eucast breakpoints): 79.2%
% R (resistance) (E. coli ESBL+; L. Amer, CLSI breakpoints): 81%
% R (resistance) (E. coli ESBL+; N America, CLSI breakpoints): 74.6%
% R (resistance) (E. faecalis VS; L. Amer): 30%
% R (resistance) (E. faecalis VS; N America): 29.3%
% R (resistance) (MR CoNS; Asia/Pac, Eucast breakpoints): 55.8%
% R (resistance) (MR CoNS; Europe, Eucast breakpoints): 64.9%
% R (resistance) (MR CoNS; L. Amer, CLSI breakpoints): 57.8%
% R (resistance) (MR CoNS; N America, CLSI breakpoints): 64.9%
% R (resistance) (A. baumanii; Asia/Pac, Eucast breakpoints): 79.3%
% R (resistance) (A. baumanii; Europe, Eucast breakpoints): 74.5%
% R (resistance) (A. baumanii; L. Amer, CLSI breakpoints): 86.9%
% R (resistance) (A. baumanii; N America, CLSI breakpoints): 68.8%
% R (resistance) (Acinetobacter spp; Asia/Pac, Eucast breakpoints): 11.1%
% R (resistance) (Acinetobacter spp; Europe, Eucast breakpoints): 41.9%
% R (resistance) (Acinetobacter spp; L. Amer, CLSI breakpoints): 33.3%
% R (resistance) (Acinetobacter spp; N America, CLSI breakpoints): 14.3%
% R (resistance) (E. faecium VS; L. Amer): 78.4%
% R (resistance) (E. faecium VS; N America): 68.7%
% R (resistance) (MSSA; Asia/Pac, Eucast breakpoints): 5.9%
% R (resistance) (MSSA; Europe, Eucast breakpoints): 5.5%
% R (resistance) (MSSA; L. Amer, CLSI breakpoints): 2.2%
% R (resistance) (MSSA; N America, CLSI breakpoints): 10.8%
